Assay results: patent US11530206B2, “Phenylaminopyrimidine amide autophagy inhibitors and methods of use thereof” (Deciphera Pharmaceuticals, LLC, priority 2019, dated 2022)

What was measured:
ULK kinase [1] = assay: pATG13 levels of mutant BRAF A375 cells after treatment with ULK inhibitors in combination with trametinib (ELISA); format: cell-based, human; conditions: A375 malignant melanoma cells (mutant BRAF), 250 nM trametinib, overnight, pS318-ATG13
Method: (§1) A375 human malignant melanoma cancer cells (20000 cells/well) were added to a 96-well tissue-culture treated plate in 100 μL of pre-warmed DMEM medium supplemented with 10% characterized fetal bovine serum (Invitrogen, Carlsbad, Calif.), 100 units/mL penicillin G, and 100 μg/mL streptomycin and allowed to grow overnight at 37° C., 5% CO2, and 95% humidity. The following day, 100 μL of media containing trametinib or DMSO as a control was added to wells. […] A dose response of a test compound (0.5 μL per well) was added. DMSO (0.5 μL) was added to control wells. The plate was briefly shaken to mix wells and then incubated at 37° C. overnight. The next day, the media was aspirated and cells were washed with Dulbecco's Phosphate Buffered Saline (Gibco). Cells were lysed using MPER lysis buffer (Pierce, Rockford, Ill.) containing Halt Phosphatase and Protease Inhibitors (Pierce, Rockford, Ill.) and Phosphatase inhibitor cocktail 2 (Sigma, St. Louis, Mo.) at 4° C. for 10 minutes with shaking.
(§2) Plate wells were washed with ELISA wash buffer. Cell lysate was added to wells and incubated at room temperature for 2 hours. Plate wells were washed with ELISA wash buffer. […] Plate wells were washed with ELISA wash buffer. […] Plate wells were washed with ELISA wash buffer. […] The reaction was stopped with 2N Sulfuric Acid. The plate was analyzed at on a plate reader measuring absorbance at 450 nm and 540 nm (background). Signal was calculated by first subtracting the background absorbance at 540 nm from the absorbance at 450 nm for each well. Next, the background corrected absorbance at 450 nm from blank wells was subtracted from test wells. Data was compared to control wells to determine % ATG13 phosphorylation. GraphPad Prism was used to calculate IC50 values.

ULK kinase [2] = assay: pATG13 levels of mutant KRas HCT-116 cells after treatment with ULK inhibitors in combination with trametinib (ELISA); format: cell-based, human; conditions: HCT-116 colon cancer cells, 250 nM trametinib, overnight, pS318-ATG13
Method: The following day, 10 μL of media containing trametinib or DMSO as a control was added to wells. […] A dose response of a test compound (0.6 μL per well) was added. DMSO (0.6 μL) was added to control wells. The plate was briefly shaken to mix wells and then incubated at 37° C. overnight. The next day, the media was aspirated and cells were washed with Dulbecco's Phosphate Buffered Saline (Gibco). Cells were lysed using MPER lysis buffer (Pierce, Rockford, Ill.) containing Halt Phosphatase and Protease Inhibitors (Pierce, Rockford, Ill.) and Phosphatase inhibitor cocktail 2 (Sigma, St. Louis, Mo.) at 4° C. for 10 minutes with shaking.
as §2

ULK kinase [3] = assay: pATG13 levels of mutant KRas A549 cells after treatment with ULK inhibitors in combination with trametinib (ELISA); format: cell-based, human; conditions: A549 (KRAS mutant) lung cancer cells, 250 nM trametinib, overnight, pS318-ATG13
Procedure, shortened: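 Lysates with phosphatase/protease inhibitors assayed by pATG13 ELISA, A450 minus A540 background and blank-corrected. % ATG13 phosphorylation versus DMSO controls fitted to IC50.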

ULK1 kinase [4] = target: T1, ULK1 kinase (Homo sapiens, UniProt O75385); assay: Biochemical assay for ULK1.2 (coupled pyruvate kinase/lactate dehydrogenase assay); conditions: 19 nM ULK1 (residues 1-314, His tag), myelin basic protein, 1 mM ATP
T1 construct: purchased Eurofins 14-959
T1 sequence (O75385 with tags, fused parts or gaps): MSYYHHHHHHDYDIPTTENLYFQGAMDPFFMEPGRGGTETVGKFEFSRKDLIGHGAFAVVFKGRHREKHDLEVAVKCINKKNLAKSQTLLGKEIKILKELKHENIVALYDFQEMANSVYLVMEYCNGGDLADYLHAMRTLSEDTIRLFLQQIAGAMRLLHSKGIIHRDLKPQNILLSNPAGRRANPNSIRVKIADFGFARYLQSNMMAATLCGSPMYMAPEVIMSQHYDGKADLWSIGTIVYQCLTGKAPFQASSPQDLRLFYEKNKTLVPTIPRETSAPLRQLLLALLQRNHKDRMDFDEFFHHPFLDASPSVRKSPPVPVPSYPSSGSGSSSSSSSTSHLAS
Method: Biochemical Assay for ULK1.2 (SEQ. ID NO: 1)
Inhibition of ULK1 was measured by adding serial diluted test compound (final assay concentration of 1% DMSO). A decrease in absorption at 340 nm was monitored continuously for 6 hours at 30° C. on a multi-mode microplate reader (BioTek). The reaction rate was calculated using the 2-3 h time frame. The reaction rate at each concentration of compound was converted to percent inhibition using controls (i.e. reaction with no test compound and reaction with a known inhibitor) and IC50 values were calculated by fitting a four-parameter sigmoidal curve to the data using Prism (GraphPad software).

ULK kinase [5] = assay: pATG13 levels of mutant KRas MiaPaCa-2 cells after treatment with ULK inhibitors in combination with trametinib (ELISA); format: cell-based, human; conditions: MiaPaCa-2 pancreatic cancer cells, 250 nM trametinib, overnight, pS318-ATG13
Procedure, shortened: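 MiaPaCa-2 cells in DMEM with 10% FBS and 2.5% horse serum were pretreated with trametinib or DMSO, then given a test-compound dose response overnight at 37° C. Lysates were assayed for phospho-ATG13 by ELISA (A450 minus A540 background, blank-corrected). % phosphorylation was calculated relative to controls and fitted to IC50.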

ULK2 kinase = target: T2, ULK2 kinase (Homo sapiens, UniProt Q8IYT8); assay: Biochemical assay for ULK2 (coupled pyruvate kinase/lactate dehydrogenase assay); conditions: 9.7 nM ULK2 (residues 1-306, GST and His tag), myelin basic protein, 1 mM ATP; read-out: ULK2.2
T2 construct: purchased Eurofins 14-772
Method: Example 132. Biochemical Assay for ULK2 (SEQ. ID NO: 3)
Activity of ULK2 kinase was determined spectroscopically using a coupled pyruvate kinase/lactate dehydrogenase assay that continuously monitors the ATP hydrolysis-dependent oxidation of NADH (e.g., Schindler et al. Science (2000) 289: 1938-1942). Assays were conducted in 384-well plates (100 uL final volume) using 9.7 nM ULK2 (Eurofins CAT #14-772), 0.25 mg/mL myelin basic protein, 1.5 units pyruvate kinase, 2.1 units lactate dehydrogenase, 1 mM phosphoenol pyruvate, 0.28 mM NADH and 1 mM ATP in assay buffer (100 mM Tris, pH 7.5, 15 mM MgCl2, 0.5 mM DTT, 0.1% octyl-glucoside, 0.002% (w/v) BSA, and 0.002% Triton X-100). Inhibition of ULK2 was measured by adding serial diluted test compound (final assay concentration of 1% DMSO). A decrease in absorption at 340 nm was monitored continuously for 6 hours at 30° C. on a multi-mode microplate reader (BioTek). The reaction rate was calculated using the 2-3 h time frame. The reaction rate at each concentration of compound was converted to percent inhibition using controls (i.e. reaction with no test compound and reaction with a known inhibitor) and IC50 values were calculated by fitting a four-parameter sigmoidal curve to the data using Prism (GraphPad software).

ULK1 kinase [6] = target: T3, ULK1 kinase (Homo sapiens, UniProt O75385, E37A/K38A); assay: Biochemical assay for ULK1.3 (coupled pyruvate kinase/lactate dehydrogenase assay, peptide substrate); conditions: 0.1 nM ULK1 (residues 1-283), 1 mM ATP
T3 construct: purchased Beryllium
T3 sequence (O75385 1-283 E37A/K38A): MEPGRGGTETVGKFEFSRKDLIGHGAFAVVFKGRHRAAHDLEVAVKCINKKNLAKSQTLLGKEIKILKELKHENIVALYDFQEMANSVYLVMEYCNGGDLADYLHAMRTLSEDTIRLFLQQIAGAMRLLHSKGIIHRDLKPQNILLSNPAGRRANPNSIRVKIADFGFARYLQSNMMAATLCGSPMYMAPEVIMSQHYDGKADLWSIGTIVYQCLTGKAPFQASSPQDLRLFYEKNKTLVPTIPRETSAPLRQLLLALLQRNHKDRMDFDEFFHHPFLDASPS
Procedure, shortened: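 ULK1.3 activity was followed by continuous decrease in 340 nm absorbance over 6 h at 30 °C with 1% DMSO final. Rates were taken from the 2–3 h window and converted to percent inhibition against no-compound and known-inhibitor controls. IC50 values came from curve fitting.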

ULK kinase [7] = assay: pATG13 levels of mutant HRas T24 cells after treatment with ULK inhibitors in combination with trametinib (ELISA); format: cell-based, human; conditions: T24 urinary bladder cancer cells (mutant HRas), 250 nM trametinib, overnight, pS318-ATG13
Method: as §1, with “T24” for “A375”, “urinary bladder” for “malignant melanoma”, “(25000” for “(20000”
as §2

T2 sequence (Q8IYT8 with tags, fused parts or gaps): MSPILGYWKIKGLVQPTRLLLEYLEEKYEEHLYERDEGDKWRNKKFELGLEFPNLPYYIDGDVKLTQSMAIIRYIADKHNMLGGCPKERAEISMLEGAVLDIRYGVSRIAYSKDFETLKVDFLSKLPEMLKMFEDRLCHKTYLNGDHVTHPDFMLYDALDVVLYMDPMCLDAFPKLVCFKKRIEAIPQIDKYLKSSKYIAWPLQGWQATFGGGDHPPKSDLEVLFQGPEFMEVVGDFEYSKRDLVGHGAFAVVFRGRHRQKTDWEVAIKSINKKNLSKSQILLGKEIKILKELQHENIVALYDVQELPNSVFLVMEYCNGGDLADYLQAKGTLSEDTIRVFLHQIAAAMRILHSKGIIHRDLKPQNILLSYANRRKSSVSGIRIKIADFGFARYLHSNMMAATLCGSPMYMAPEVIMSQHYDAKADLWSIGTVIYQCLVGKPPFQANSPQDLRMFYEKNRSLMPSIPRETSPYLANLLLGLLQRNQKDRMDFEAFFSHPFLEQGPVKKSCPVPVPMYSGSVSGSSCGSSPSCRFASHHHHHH

Compound	IC50 (ULK kinase [1]) [nM]	IC50 (ULK kinase [2]) [nM]	IC50 (ULK kinase [3]) [nM]	IC50 (ULK1 kinase [4]) [nM]	IC50 (ULK kinase [5]) [nM]	IC50 (ULK2 kinase) [nM]	IC50 (ULK1 kinase [6]) [nM]	IC50 (ULK kinase [7]) [nM]
CCc1cc(N2CCN(C)CC2)ccc1Nc1ncc(Br)c(NCCCN2CCCCC2=O)n1 [Example 23, 1-(3-((5-bromo-2-((2-ethyl-4-(4-methylpiperazin-1-yl)phenyl)amino)pyrimidin-4-yl)amino)propyl)piperidin-2-one]	10 to 100	10 to 100	10 to 100	25 to 100	10 to 100	100 to 500	–	–
O=C1CCCCN1CCCNc1nc(Nc2ccc(N3CCNCC3)cc2C2CC2)ncc1C(F)(F)F [Example 34, 1-(3-((2-((2-cyclopropyl-4-(piperazin-1-yl)phenyl)amino)-5-(trifluoromethyl)pyrimidin-4-yl)amino)propyl)piperidin-2-one]	–	10 to 100	10 to 100	–	10 to 100	–	1 to 25	100 to 300
CCN1CCN(c2ccc(Nc3ncc(C(F)(F)F)c(NCCCN4CCOCCC4=O)n3)c(C(C)C)c2)CC1 [Example 73]	10 to 100	10 to 100	100 to 300	1 to 25	100 to 300	100 to 500	–	–
